According to US20120122776A1, “DPP-IV INHIBITORS FOR TREATMENT OF DIABETES IN PEDIATRIC PATIENTS” (BOEHRINGER INGELHEIM INTERNATIONAL GMBH, priority 2009, published 2012):

Legend:
[1] = Safety and tolerability in people with type 2 diabetes
[2] = 12-week randomized, double-blind add-on to metformin study in inadequately controlled adult type 2 diabetic patients: HbA1c and FPG; conditions: for placebo corrected mean reduction in HbA1c: 12 weeks
Description: Effects were compared to add-on of placebo (PBO) or of open label glimepiride (GLIM; 1 to 3 mg qd) in a 12-week randomized, double-blind study.
The primary endpoint was change from baseline in HbA1c, adjusted for prior antidiabetic medication.

[3] = Pharmacokinetics of BI 1356, multiple oral doses once daily for 12 days in adult patients with type 2 diabetes; conditions: for fe0-24: fraction excreted in urine; for AUCT,ss / T1/2,ss / feT,ss / tmax,ss* / Cmax: steady state (Day 12); for tmax,ss*: median; for Cmax: read-out: Cmax,ss
clinical = conditions: human; for Cmax / Tmax / AUC(0-t): plasma; for CL renal: urine
[4] = Safety (adverse events, hypoglycaemia) in the 12-week add-on to metformin study; format: in vivo, human; conditions: 12 weeks
Text: In total, 106 patients (43.1%) experienced adverse events (AEs) with similar incidences across all treatments. Most frequently reported episodes were nasopharyngitis (7.5%), diarrhoea (3.3%), and nausea (3.0%). […] Ten patients (3.7%) experienced serious AEs but none of these events were considered drug-related.
The addition of BI 1356 to MET in patients with T2DM inadequately controlled on MET alone achieved clinically relevant and statistically significant reductions in HbA1c.

[5] = 2 h postprandial blood glucose excursions, multiple oral dose study in adult patients with type 2 diabetes; format: in vivo, human; conditions: already on Day 1; in doses 2.5 mg
Text: […]. […] […].

[6] = Plasma concentration after single oral administration in the thorough QT study; format: in vivo, human; conditions: for maximum gMean concentration after single oral administration: healthy subjects
Description: Forty-four subjects were enrolled, 26 (59.1%) of whom were male. The mean age was 36.4 years (range 22 to 48 years). The maximum gMean concentration after single oral administration was 7.05 nM (28.5% gCV) for 5 mg BI 1356, and 267 nM (66.6% gCV) for 100 mg BI 1356.

[7] = gMean, 1 mg once daily oral for 12 days
[8] = gMean, 2.5 mg once daily oral for 12 days
[9] = gMean, 5 mg once daily oral for 12 days
[10] = gMean, 10 mg once daily oral for 12 days

For `CC#CCn1c(N2CCC[C@@H](N)C2)nc2c1c(=O)n(Cc1nc(C)c3ccccc3n1)c(=O)n2C` [BI 1356], the “excretion form and pathway” value (in vivo) was “primarily excreted unchanged via the bile”, the “excretion via the kidney” value (therapeutic oral dose levels) was < 7 % of the administered oral dose and the main excretion organ (therapeutic oral dose levels) was “mainly excreted via the liver”. The safety and tolerability [1] was “placebo-like safety and tolerability”, the “reduction in FPG from baseline to Week 12” value (“reduction in FPG” for short) ([2]; 1 mg qd add-on to metformin) was -19 mg/dL and the “placebo corrected mean reduction in HbA1c” value ([2]; 1 mg qd add-on to metformin, n=65) was −0.39%. For the same compound, the “reduction in FPG” value ([2]; 5 mg qd add-on to metformin) was -35 mg/dL, the “placebo corrected mean reduction in HbA1c” value ([2]; 5 mg qd add-on to metformin, n=66) was −0.75% and the “reduction in FPG” value ([2]; 10 mg qd add-on to metformin) was -30 mg/dL. The “placebo corrected mean reduction in HbA1c” value ([2]; 10 mg qd add-on to metformin, n=66) was −0.73%, the “mean accumulation ratio RA,AUC” value ([3]; doses above 1 mg, once daily for 12 days) was no more than 1.4 and the AUC0-24 [3, 7] was 0.0402 µM·h. The “Accumulation t1/2,” value [3, 7] was 23.9 h, the “Accumulation t1/2,” value [3, 8] was 12.5 h and the “Accumulation t1/2,” value [3, 9] was 11.4 h. For the same compound, the “Accumulation t1/2,” value [3, 10] was 8.59 h, the fe0-24 [3, 8] was 0.139% and the fe0-24 [3, 9] was 0.453%. For the same compound, the fe0-24 [3, 10] was 0.919%, the “AUCT,ss” value ([3]; gMean, 1 mg once daily oral) was 0.0817 µM·h and the “T1/2,ss” value ([3]; gMean, 1 mg once daily oral) was 121 h. For the same compound, the “feT,ss” value ([3]; gMean, 1 mg once daily oral) was 3.34%, the “AUCT,ss” value ([3]; gMean, 2.5 mg once daily oral) was 0.117 µM·h and the “T1/2,ss” value ([3]; gMean, 2.5 mg once daily oral) was 113 h. For the same compound, the “feT,ss” value ([3]; gMean, 2.5 mg once daily oral) was 3.06%, the “AUCT,ss” value ([3]; gMean, 5 mg once daily oral) was 0.158 µM·h and the “T1/2,ss” value ([3]; gMean, 5 mg once daily oral) was 131 h. For the same compound, the “feT,ss” value ([3]; gMean, 5 mg once daily oral) was 6.27%, the “AUCT,ss” value ([3]; gMean, 10 mg once daily oral) was 0.19 µM·h and the “T1/2,ss” value ([3]; gMean, 10 mg once daily oral) was 130 h. For the same compound, the “feT,ss” value ([3]; gMean, 10 mg once daily oral) was 3.22%, the “tmax,ss*” value ([3]; 1 mg once daily oral) was 1.48 h and the “tmax,ss*” value ([3]; 2.5 mg once daily oral) was 1.42 h. For the same compound, the “tmax,ss*” value ([3]; 5 mg once daily oral) was 1.53 h, the “tmax,ss*” value ([3]; 10 mg once daily oral) was 1.34 h and the Cmax ([3]; gMean, 1 mg once daily oral) was 4.53 nM. For the same compound, the Cmax ([3]; gMean, 2.5 mg once daily oral) was 6.58 nM, the Cmax ([3]; gMean, 5 mg once daily oral) was 11.1 nM and the Cmax ([3]; gMean, 10 mg once daily oral) was 13.6 nM. It also gave a Cmax (clinical; po, 1 mg) of 3.13 nM, a Tmax (clinical; po, 1 mg) of 1.5 h and an AUC(0-t) (clinical; po, 2.5 mg) of 0.0853 µM·h. The Cmax (clinical; po, 2.5 mg) was 5.25 nM, the Tmax (clinical; po, 2.5 mg) was 2 h and the AUC(0-t) (clinical; po, 5 mg) was 0.118 µM·h. It also gave a Cmax (clinical; po, 5 mg) of 8.32 nM, a Tmax (clinical; po, 5 mg) of 1.75 h and an AUC(0-t) (clinical; po, 10 mg) of 0.161 µM·h. The Cmax (clinical; po, 10 mg) was 9.69 nM, the Tmax (clinical; po, 10 mg) was 2 h and the CL renal (clinical; oral, 5 mg) was roughly 70 mL/min. For the same compound, the CL renal (clinical; po) was 14 to 70 mL/min, the drug-related hypoglycaemia ([4]; add-on to metformin) was “did not occur” and the “incidence of AEs versus PBO” value ([4]; add-on to metformin) was “comparable”. The “tolerability of combination treatment with MET” value ([4]; BI 1356 1, 5, and 10 mg and MET) was “well tolerated”, the “decrease in 2 h postprandial blood glucose excursions” value [5] was greater than 80% and the “maximum gMean concentration after single oral administration” value ([6]; 5 mg single oral dose) was 7.05 nM. For the same compound, the “maximum gMean concentration after single oral administration” value ([6]; 100 mg single oral dose) was 267 nM and the “maximum plasma concentration of supratherapeutic dose (100 mg) relative to therapeutic dose of 5 mg” value ([6]; single dose) was “about 38 fold”.

For `CCC1=C(C)CN(C(=O)NCCc2ccc(S(=O)(=O)NC(=O)N[C@H]3CC[C@H](C)CC3)cc2)C1=O` [GLIM, glimepiride, reference compound], the “mean PBO corrected reduction in HbA1c at Week 12” value ([2]; open label, 1 to 3 mg qd add-on to metformin, n=64) was −0.90% and the drug-related hypoglycaemia ([4]; add-on to metformin) was 3 patients.
